Test results: publication PMC10222209 (Pharmaceuticals, 2023)
Read-outs that look alike come from different tables or passages of the source.

Key:
[1] = test system: LNCaP95 cells; assay: Antiproliferative assay (resazurin, 72 h) in LNCaP95 cells; assay type: cell-based
Description: (§1) 22Rv1 cells were obtained from ATCC. LNCaP95 cells were provided by Dr. Yan Dong’s laboratory (Tulane University School of Medicine). LNCaP95 cells were maintained in an RPMI1640 medium with charcoal-stripped serum (CSS). 22Rv1 cells were maintained in an RPMI1640 medium with 10% FBS. Cells were seeded in 96-well plates (5 × 10^3 cells/well) containing a 50 μL growth medium for 24 h. After medium removal, a 100 μL fresh medium containing individual compounds at different concentrations was added to each well and incubated at 37 °C for 72 h. Then, 20 μL of resazurin was added for 2 h before recording fluorescence at 560 nm (excitation) and 590 nm (emission) using a Victor microtiter plate fluorometer (Perkin-Elmer, Waltham, MA, USA).

[2] = test system: 22RV1 cells; assay: Antiproliferative assay (resazurin, 72 h) in 22RV1 cells; assay type: cell-based; settings: for inhibition at 1 µM / IC50: Homo sapiens; for antiproliferative activity, in words: enzalutamide-resistant cell lines LNCaP95 and 22RV1, SAR statements
Description: as §1

[3] = LNCaP-95, antiproliferation, LNCaP95, 72 h, mean of three independent experiments, read-out: IC50 (μM) LNCaP95
[4] = 22RV1, 1.0 μM, read-out: Inhibitory Rate 22RV1 @1.0 μM
[5] = antiproliferation, 22RV1, 72 h, mean of three independent experiments, read-out: IC50 (μM) 22RV1
[6] = observed, −log IC50, 22RV1 antiproliferation, read-out: Obs pIC50 (converted)

IC50 [1, 3] | IC50 [2, 5] | IC50 [2, 6] | IC50 ([1]; LNCaP-95, antiproliferation, approximate value, read-out: IC50 in LNCaP95 (text)) | IC50 ([2]; 22Rv1, antiproliferation, approximate value, read-out: IC50 in 22RV1 (text)) | SMILES | inhibition at 1 µM [2, 4] | antiproliferative activity, in words [2] | IC50 ([1]; LNCaP-95, 72 h, read-out: IC50 (μM) LNCaP95) | IC50 ([2]; 22Rv1, 72 h, read-out: IC50 (μM) 22RV1) | inhibition at 1 µM ([2]; 22Rv1, read-out: Inhibitory Rate 22RV1 @1.0 μM) | IC50 ([2]; 22Rv1, read-out: Obs pIC50 (converted))
1.19 ± 0.53 µM | 0.467 ± 0.131 µM | 0.467 µM | – | – | O=C(Nc1ccc([N+](=O)[O-])cc1F)c1ccc(Cl)cc1O [A1] | 54.3% | – | – | – | – | –
0.62 ± 0.311 µM | 0.676 ± 0.245 µM | 0.676 µM | – | – | Cc1cc([N+](=O)[O-])ccc1NC(=O)c1ccc(Cl)cc1O [A2] | 47.1% | – | – | – | – | –
2.48 ± 0.702 µM | 0.714 ± 0.303 µM | 0.714 µM | – | – | COc1cc([N+](=O)[O-])ccc1NC(=O)c1ccc(Cl)cc1O [A3] | 50% | – | – | – | – | –
0.937 ± 0.351 µM | 0.924 ± 0.414 µM | 0.925 µM | – | – | O=C(Nc1ccc([N+](=O)[O-])c(F)c1)c1ccc(Cl)cc1O [A5] | 44.2% | – | – | – | – | –
0.789 ± 0.436 µM | 0.976 ± 0.205 µM | 0.975 µM | – | – | Cc1cc(NC(=O)c2ccc(Cl)cc2O)ccc1[N+](=O)[O-] [A7] | 42.5% | – | – | – | – | –
0.615 ± 0.138 µM | 2.11 ± 0.52 µM | 2.11 µM | – | – | COc1cc(NC(=O)c2ccc(Cl)cc2O)ccc1[N+](=O)[O-] [A8] | 35.9% | – | – | – | – | –
0.812 ± 0.374 µM | 0.581 ± 0.289 µM | 0.581 µM | – | – | O=C(Nc1ccc([N+](=O)[O-])cc1)c1cc(Cl)ccc1O [A9] | 44.9% | – | – | – | – | –
0.373 ± 0.069 µM | 0.271 ± 0.125 µM | 0.271 µM | – | – | O=C(Nc1ccc([N+](=O)[O-])cc1F)c1cc(Cl)ccc1O [A10] | 56% | – | – | – | – | –
– | – | – | – | – | O=C(Nc1ccc([N+](=O)[O-])cc1C(F)(F)F)c1cc(Cl)ccc1O [A11] | -8.3% | – | – | – | – | –
0.493 ± 0.105 µM | 0.248 ± 0.063 µM | 0.248 µM | – | – | Cc1cc([N+](=O)[O-])ccc1NC(=O)c1cc(Cl)ccc1O [A12] | 58% | – | – | – | – | –
0.444 ± 0.119 µM | 0.158 ± 0.044 µM | 0.158 µM | – | – | COc1cc([N+](=O)[O-])ccc1NC(=O)c1cc(Cl)ccc1O [A13] | 57.3% | – | – | – | – | –
– | – | – | – | – | O=C(Nc1ccc([N+](=O)[O-])c(Cl)c1)c1cc(Cl)ccc1O [A14] | – | – | 1.67 ± 0.25 µM | 0.386 ± 0.171 µM | 51.3% | 0.386 µM
0.755 ± 0.221 µM | 0.28 ± 0.092 µM | 0.28 µM | – | – | O=C(Nc1ccc([N+](=O)[O-])c(F)c1)c1cc(Cl)ccc1O [A15] | 55.4% | – | – | – | – | –
0.867 ± 0.298 µM | 0.324 ± 0.058 µM | 0.324 µM | – | – | Cc1cc(NC(=O)c2cc(Cl)ccc2O)ccc1[N+](=O)[O-] [A17] | 50.1% | – | – | – | – | –
2.11 ± 0.46 µM | 0.483 ± 0.145 µM | 0.483 µM | – | – | COc1cc(NC(=O)c2cc(Cl)ccc2O)ccc1[N+](=O)[O-] [A18] | 55.4% | – | – | – | – | –
– | – | – | – | – | O=C(Nc1ccc([N+](=O)[O-])cc1Cl)c1cc(Br)ccc1O [A19] | 13.4% | dramatic loss of activity | – | – | – | –
0.304 ± 0.053 µM | 0.242 ± 0.044 µM | 0.242 µM | – | – | COc1cc([N+](=O)[O-])ccc1NC(=O)c1cc(Br)ccc1O [A20] | 60.2% | equivalent or improved anti-proliferation potency | – | – | – | –

IC50 [1, 3] | IC50 [2, 5] | IC50 [2, 6] | IC50 ([1]; LNCaP-95, antiproliferation, approximate value, read-out: IC50 in LNCaP95 (text)) | IC50 ([2]; 22Rv1, antiproliferation, approximate value, read-out: IC50 in 22RV1 (text)) | SMILES | inhibition at 1 µM [2, 4] | antiproliferative activity, in words [2] | IC50 ([1]; LNCaP-95, 72 h, read-out: IC50 (μM) LNCaP95) | IC50 ([2]; 22Rv1, 72 h, read-out: IC50 (μM) 22RV1) | inhibition at 1 µM ([2]; 22Rv1, read-out: Inhibitory Rate 22RV1 @1.0 μM) | IC50 ([2]; 22Rv1, read-out: Obs pIC50 (converted))
– | – | – | – | – | Nc1ccc(NC(=O)c2cc(Cl)ccc2O)c(Cl)c1 [B2] | 19.6% | complete loss of activity | – | – | – | –
0.213 ± 0.042 µM | 0.307 ± 0.059 µM | 0.307 µM | – | – | O=C(Nc1ccc(C(F)(F)F)c(C(F)(F)F)c1)c1cc(Br)ccc1O [B4] | 53.1% | – | – | – | – | –
0.384 ± 0.088 µM | 0.375 ± 0.063 µM | 0.375 µM | – | – | O=C(Nc1ccc(C(F)(F)F)cc1Cl)c1cc(F)ccc1O [B5] | 59.2% | – | – | – | – | –
0.185 ± 0.041 µM | 0.196 ± 0.032 µM | 0.196 µM | – | – | O=C(Nc1ccc(C(F)(F)F)cc1F)c1cc(F)ccc1O [B6] | 62.5% | equivalent or improved anti-proliferation potency | – | – | – | –
4.38 ± 1.33 µM | 7.92 ± 2.56 µM | 7.93 µM | – | – | N#Cc1cc(C(F)(F)F)ccc1NC(=O)c1cc(F)ccc1O [B7] | 42.3% | – | – | – | – | –
0.396 ± 0.065 µM | 0.24 ± 0.048 µM | 0.24 µM | – | – | N#Cc1cc(NC(=O)c2cc(F)ccc2O)ccc1C(F)(F)F [B8] | 60.4% | – | – | – | – | –
0.627 ± 0.225 µM | 0.547 ± 0.153 µM | 0.547 µM | – | – | O=C(Nc1ccc(C(F)(F)F)nc1)c1cc(F)ccc1O [B10] | 42.3% | – | – | – | – | –
0.392 ± 0.136 µM | 0.581 ± 0.205 µM | 0.581 µM | – | – | O=C(Nc1ccnc(C(F)(F)F)c1)c1cc(F)ccc1O [B11] | 47.7% | – | – | – | – | –
> 10 µM | 3.23 ± 1.84 µM | 3.23 µM | – | – | N#Cc1ccc(NC(=O)c2cc(F)ccc2O)c(Cl)c1 [B12] | 44.3% | – | – | – | – | –
0.231 ± 0.072 µM | 0.184 ± 0.061 µM | 0.184 µM | – | – | N#Cc1ccc(NC(=O)c2cc(F)ccc2O)c(F)c1 [B13] | 65.6% | – | – | – | – | –
2.35 ± 0.53 µM | 1.04 ± 0.26 µM | 1.04 µM | – | – | N#Cc1ccc(O)c(C(=O)Nc2ccc(C(F)(F)F)c(C(F)(F)F)c2)c1 [B15] | 44.8% | – | – | – | – | –
0.113 ± 0.044 µM | 0.111 ± 0.023 µM | 0.111 µM | ~0.1 µM | ~0.1 µM | O=C(Nc1ccc(C(F)(F)F)c(C(F)(F)F)c1)c1cc(C(F)(F)F)ccc1O [B16] | 64.6% | equivalent or improved anti-proliferation potency | – | – | – | –
0.299 µM | 0.32 ± 0.115 µM | 0.32 µM | – | – | O=C(Nc1ccc(C(F)(F)F)c(C(F)(F)F)c1)c1cccc(Cl)c1 [C1] | 53.1% | retained | – | – | – | –
– | – | – | – | – | O=C(Nc1ccc([N+](=O)[O-])cc1Cl)c1cccc(Cl)c1 [C2] | 19% | significant loss of activity | – | – | – | –
– | – | – | – | – | O=C(Nc1ccc([N+](=O)[O-])cc1Cl)c1cccc(Br)c1 [C4] | 31.2% | significant loss of activity | – | – | – | –
0.386 ± 0.098 µM | 0.481 ± 0.113 µM | 0.481 µM | – | – | CC(=O)Oc1ccc(Cl)cc1C(=O)Nc1ccc([N+](=O)[O-])cc1Cl [C7] | 42.9% | comparable activity | – | – | – | –
– | – | – | – | – | CNC(=O)c1ccc(N2C(=S)N(c3ccc(C#N)c(C(F)(F)F)c3)C(=O)C2(C)C)cc1F [Enzalutamide, reference compound] | 24.1% | – | – | – | – | –

SMILES | IC50 [1, 3] | IC50 [2, 5] | IC50 [2, 6] | IC50 ([1]; LNCaP-95, antiproliferation, approximate value, read-out: IC50 in LNCaP95 (text)) | IC50 ([2]; 22Rv1, antiproliferation, approximate value, read-out: IC50 in 22RV1 (text)) | inhibition at 1 µM [2, 4] | antiproliferative activity, in words [2] | IC50 ([1]; LNCaP-95, 72 h, read-out: IC50 (μM) LNCaP95) | IC50 ([2]; 22Rv1, 72 h, read-out: IC50 (μM) 22RV1) | inhibition at 1 µM ([2]; 22Rv1, read-out: Inhibitory Rate 22RV1 @1.0 μM) | IC50 ([2]; 22Rv1, read-out: Obs pIC50 (converted))
O=C(Nc1ccc([N+](=O)[O-])c(Cl)c1)c1ccc(Cl)cc1O [A4] | 3.43 ± 0.49 µM | 0.713 ± 0.178 µM | 0.713 µM | – | – | 47.5% | – | – | – | – | –
O=C(Nc1ccc([N+](=O)[O-])c(C(F)(F)F)c1)c1ccc(Cl)cc1O [A6] | 0.214 ± 0.067 µM | 0.424 ± 0.12 µM | 0.424 µM | – | – | 54.4% | equivalent or improved anti-proliferation potency | – | – | – | –
O=C(Nc1ccc([N+](=O)[O-])c(C(F)(F)F)c1)c1cc(Cl)ccc1O [A16] | 0.693 ± 0.314 µM | 0.556 ± 0.112 µM | 0.556 µM | – | – | 47.5% | – | – | – | – | –
O=C(Nc1ccc([N+](=O)[O-])c(C(F)(F)F)c1)c1cccc(Cl)c1 [C3] | 0.33 ± 0.081 µM | 0.557 ± 0.127 µM | 0.557 µM | – | – | 43.7% | retained | – | – | – | –
O=C(Nc1ccc([N+](=O)[O-])c(C(F)(F)F)c1)c1cccc(Br)c1 [C5] | 0.536 ± 0.201 µM | 0.306 ± 0.058 µM | 0.306 µM | – | – | 58.3% | retained | – | – | – | –
